# Source: US20240368552A1, “PRE-EPICARDIAL CELLS AND USES THEREOF” (The General Hospital Corporation, priority 2021, published 2024)
# Legend:
# Assay type in all cases: cell-based, human
# hiPSC-derived CMs = experiment: Differentiation of ventricular-like CM population with BMS-189453; conditions: day 30, treated 96 h starting at day 3, vs control
# Description: (§1) Quantitative PCR. Cells were lysed with RT buffer and total RNA was purified using RNeasy® Plus Mini kit (Qiagen, Hilden, Germany) which was reverse transcribed to cDNA using Superscript IV VILO Master Mix (Gibco, Grand Island, NY) and ran on Bio-rad T100™ Thermal Cycler according to manufacturer's protocol. Quantitative PCR was performed on StepOnePlus Real-time PCR system (Applied Biosystems, Foster City, CA) after mixing cDNA with Taqman Gene Expression Master Mix (Cat #: 4369016) and gene Taqman probe (Applied Biosystems, Foster City, CA) which can be found in Table 1. All gene expressions were normalized to housekeeping gene beta-actin and presented as log 2fold change (delta-delta CT).
# Differentiation of Ventricular-like CM population. Human iPS cells were maintained and differentiated to LPM with Stemolecule™ CHIR99021 for 48 h. BMS-189453 (1-2 μM, Sigma Aldrich, St. Louis, MO) was supplemented together with Stemolecule™ Wnt inhibitor IWP-4 (Stemgent, San Diego, CA) in RPMI-INS for 48 h starting day 3. Then, BMS-189453 treatment was continued after additional 48 h after withdrawal of Stemolecule™ Wnt inhibitor IWP-4 in RPMI-INS until day 9. Culture medium was then switched to RPMI supplemented with insulin containing B27 to further maintain the differentiated ventricular myocytes until use.
# IGF2 = experiment: Inhibition of RA signaling in PEC in transwell (IGF2 qPCR); conditions: 5 μM, 6 days, vs control without BMS
# Description: as §1
# Inhibition of RA signaling in PEC in Transwell: PECs were seeded at 2.5×10^5 cells/well in 24 well-plate while 2.5×10^5 cells VM were cultured in the transwell insert. Both cells were cultured using PECM:RPMI-INS medium, with […] (5 μM) only present in lower compartment with PECs, for 6 days. IGF2 RNA was harvested from PECs for qPCR analysis.
# hiPSCs (BJR-iPS cells) = experiment: Lateral plate mesoderm (LPM) induction from hiPSCs with CHIR, flow cytometry and RT-PCR
# Description: HiPSC culture, maintenance and differentiation. Human BJR-iPS cells (hiPSCs) were obtained from Harvard Stem Cell Institute, and maintained in MTeSR medium (STEMCELL Technologies). hiPSCs were passaged with ReleaSR (STEMCELL Technologies, Cambridge, MA) and plated at 1:20 ratio every 7 days onto […] pre-coated with growth factor reduced (GFR)-Matrigel (Corning, Tewksbury, MA). Briefly, hiPSCs were seeded at 200,000 cells/cm^2 onto a GFR-Matrigel-coated plate and maintained in MTeSR medium for 4-5 days. To generate the lateral plate mesoderm (LPM), the cells were treated with 12 μM Stemolecule™ CHIR99021 (Stemgent, San Diego, CA) in differentiation basal medium consisting of RPMI medium supplemented with B27 without insulin (Gibco, Grand Island, NY) (RPMI-INS,) for 48 h. Then, the medium was replaced with RPMI-INS for 24 h. Next, the culture was incubated with 5 μM of Stemolecule™ Wnt inhibitor IWP-4 (Stemgent, San Diego, CA) in RPMI-INS for 48 hr before switching it back to RPMI-INS, for additional 48 hr. After that, the medium was changed to RPMI medium supplemented with insulin-containing B27, and refreshed every 2 days for long term maintenance. For PEC differentiation, LPM cells at day 3 were treated with RPMI-INS supplemented 50 ng/ml bone morphogenic protein (BMP) 4 (PeproTech, Rocky Hill, NJ), 5 ng/ml vascular endothelial growth factor (VEGF; PeproTech, Rocky Hill, NJ) and 4 μM retinoic acid (RA; Stemgent, San Diego, CA) in RPMI-INS and changed every 2 days for 96 hr. PECs were dissociated using collagenase I (Sigma Aldrich, St. Louis, MO) and 1×TrypLE Express Enzyme (Gibco, Grand Island, NY), and maintained in complete PEC medium (PECM) consisted of DMEM/F12 supplemented with 1×insulin-selenium-transferrin (ITS; Gibco, Grand Island, NY), 5 ng/ml VEGF (PeproTech, Rocky Hill, NJ), 10 μM retinol, 4 μM RA (Stemgent, San Diego, CA) and 60 μg/ml ascorbic acid (Sigma). For plating, 1 μM of ROCK inhibitor Y-27632 dihydrochloride (Tocris Bioscience, Bristol, UK) was added for 24 h to facilitate cell attachment, after which medium was switched to PECM. For PEC maintenance, differentiated PEC were passaged and seeded at 10,000/well of 24 well-plate and maintained using SB medium consisted of DMEM/F12 supplemented with 0.4 mg/ml of Albumax (Gibco, Grand Island, NY), 1×ITS (Gibco, Grand Island, NY), 60 μg/ml ascorbic acid (Sigma Aldrich, St. Louis, MO), with 2 μM TGFβ inhibitor SB431542 (Tocris Bioscience, Bristol, UK). […]
# Quantitative PCR. […] Quantitative PCR was performed on StepOnePlus Real-time PCR system (Applied Biosystems, Foster City, CA) after mixing cDNA with Taqman Gene Expression Master Mix (Cat #: 4369016) and gene Taqman probe (Applied Biosystems, Foster City, CA) which can be found in Table 1. […]
# ventricular-CMs = experiment: IGF signaling in PEC-induced ventricular-CM proliferation (IGF1R inhibition assay, IGF2 dose-response)
# PECs = experiment: Stimulation of epithelial-mesenchymal transition in PECs; conditions: for PECs CD90 positive: 6 days treatment, flow cytometry; for PEC phenotype (ZO1, WT1, morphology): immunofluorescence, extended culture / 6 days
# Description: Stimulation of epithelial-mesenchymal transition in PECs. Day 7 PECs were seeded at 100,000 cells/well on 24-well-plate pre-coated with 0.1% gelatin, and allowed to attach overnight in basal medium (BM) consisted of DMEM/F12 supplemented with […] of Albumax (Gibco, Grand Island, NY), 1×ITS (Gibco, Grand Island, NY), 60 μg/ml ascorbic acid (Sigma Aldrich, St. Louis, MO). 1 μM of ROCK inhibitor Y27632 (Tocris Bioscience, Bristol, UK) was added to facilitate PEC attachment for 24 h. Then, PECs were expanded to full confluency in the BM with 2 μM SB431542 (Stemgent, San Diego, CA) but without AlbuMAX II (Gibco, Grand Island, NY), for 3-4 days. EMT were initiated by adding 5 ng/ml TGFβ (R&D system, Minneapolis, MN) for the initial 3 days and 10 ng/ml bFGF (PeproTech, Rocky Hill, NJ) for the subsequent 3 days or just bFGF alone, up to 6 days. Controls were epicardial cells in basal medium or with addition of 2 μM SB431542 (Stemgent, San Diego, CA).
# as §1
# Flow cytometry. Cells were dissociated using trypsin, pelleted by centrifugation at 300 g for 5 min, and fixed with Fixation/Permeabilization Solution Kit according to manufacturer's protocol (BD Biosciences, San Diego, CA). Cells were washed with 2 times of 10% BD Perm/Wash Buffer (BD Biosciences, San Diego, CA) to remove fixative prior to staining. Samples were incubated with primary antibody diluted in BD Perm/Wash Buffer at 4° C. for 45 min. To remove excessive primary antibody, samples were spun at 250 g for 5 min and washed once with Perm/Wash buffer prior to labelling with Alexa Fluor 488 secondary antibody (Molecular Probes Eugene, OR) at 1:500 for 30 min. All samples were washed once with BD Perm/Wash Buffer prior to analysis with BD Accuri, BD FACS LSR Flow Cytometer (BD Biosciences, San Diego, CA) or NovoCyte Flow Cytometer (ACEA Biosciences, San Diego, CA). All flow cytometric analyses were performed using FlowJo 10.5.0 software.
# Immunofluorescence labelling and microscopy (cells, spheres, aggregates). Cultured cells were fixed with cold methanol at 4° C. for 15 min, and then washed with PBS. CM-spheres, PEC-Spheres, and cardiac aggregates were fixed overnight with 4% paraformaldehyde, embedded in Histogel™ (Thermo Scientific, Kalamazoo, MI), dehydrated, and embedded in paraffin. Sections were cut at 5 μm, deparaffinized, and treated with a heat-mediated antigen retrieval technique that included a 20-min boilin 0.01 M citrate buffer (pH 7.0). Both cells and histological sections were labelled with primary antibodies (Table 1) overnight at 4° C. Donkey anti rabbit AlexaFluor 488 and donkey anti-mouse AlexaFluor 546 and 647 (Molecular Probes Eugene, OR) were used as secondary antibodies at 1:500 and nuclei were counterstained with DAPI (Sigma Aldrich, St. Louis, MO). All labelled cells were visualized using Nikon Eclipse Ti fluorescence microscope (Nikon Instruments, Melville, NY), and processed with NIS element imaging software or ImageJ.
# [1] = 48 h CHIR treatment, day 3, RT-PCR vs hiPSC
# [2] = day 3, 48 h CHIR treatment, flow cytometry
# [3] = 6 days, RT-PCR vs SB-treated PECs
compound,measurement,setting,value
"CC1(C)CC=C(c2ccccc2)c2cc(/C=C/c3ccc(C(=O)O)cc3)ccc21 [BMS, BMS189453]",ventricular genes MYH7 and MYL2 expression,hiPSC-derived CMs,significantly upregulated
same,IGF2 expression in co-cultured PECs,IGF2,significantly reduced
"Cc1c[nH]c(-c2cnc(NCCNc3ccc(C#N)cn3)nc2-c2ccc(Cl)cc2Cl)n1 [CHIR, CHIR99021]","pluripotency markers (OCT3/4, SOX2, NANOG) expression",hiPSCs (BJR-iPS cells); [1],significant downregulation
same,"primitive streak, lateral plate mesoderm and cardiac progenitor marker expression",hiPSCs (BJR-iPS cells); [1],significant upregulation
same,LPM progenitors expressing KDR,hiPSCs (BJR-iPS cells); [2],88.0±3.6%
same,LPM progenitors expressing PDGFRA,hiPSCs (BJR-iPS cells); [2],73.7±4.3%
C[C@]1(O)C[C@@H](c2nc(-c3ccc4ccc(-c5ccccc5)nc4c3)c3c(N)nccn32)C1 [Linsitinib],cTnT+ EdU+ CMs,"ventricular-CMs; treated with 1 μM, 3 days, PEC coculture",7.0±0.4%
"NC(=O)c1ccc(-c2nc(-c3ccc4c(c3)OCO4)c(-c3ccccn3)[nH]2)cc1 [SB, SB431542]",PECs CD90 positive,PECs,1.1±0.1%
same,"PEC phenotype (ZO1, WT1, morphology)",PECs,maintain the cuboidal epithelial phenotype with defined ZO1 expression
IGF2: IGF2 protein added to ventricular CMs,cTnT+ EdU+ CMs,"ventricular-CMs; IGF2 addition, dose-response",significantly increased
TGFβ,PECs CD90 positive,PECs,28.7±3.5%
same,"ACTA2, DDR2 and POSTN expression",PECs; [3],significant increases
same,"PEC phenotype (ZO1, WT1, morphology)",PECs,"ZO1 disarrangement, cell and nucleus enlargement, and WT1-expression loss"
"bFGF: bFGF growth factor (PeproTech), 10 ng/ml",PECs CD90 positive,PECs,95.3±0.7%
same,"ACTA2, DDR2 and POSTN expression",PECs; [3],significant increases
same,SNAI1 expression,PECs; [3],upregulation
same,fibroblast markers TCF21 and VIM expression,PECs; [3],significant upregulation
same,"PEC phenotype (ZO1, WT1, morphology)",PECs,"ZO1 disarrangement, cell and nucleus enlargement, and WT1-expression loss"
